Data set [1] relates to rat Mdr1a (P-gp). The data set can be described thus: Efflux ratio of apparent permeability across basolateral to apical side over apical to basolateral side in rat Mdr1a-transfected pig LLC-PK1 cells at 0.1 to 1 uM measured after 3 hrs by LC/MS/MS analysis. In kind it is ADME, cell-based, Sus scrofa. As to conditions: dose 0.1-1 µM.
Data set [2] can be described thus: Intrinsic clearance in rat hepatocytes at 0.3 uM incubated for 90 mins by LC/MS/MS analysis. As to conditions: read-out: CLH. The format is ADME, cell-based, Hepatocyte.
Data set [3] in a line: Intrinsic clearance in human hepatocytes at 0.3 uM incubated for 90 mins by LC/MS/MS analysis. As to conditions: read-out: CLH. The format is ADME, cell-based, Hepatocyte.
In data set [4] the test system is rat Mdr1a (P-gp). The data set can be described thus: Apparent permeability from apical to basolateral side in rat Mdr1a-transfected pig LLC-PK1 cells at 0.1 to 1 uM measured after 3 hrs by LC/MS/MS analysis. The format is ADME, cell-based, Sus scrofa. As to conditions: dose 0.1-1 µM.
The subject of data set [5] is Leucine-rich repeat serine/threonine-protein kinase 2 (Homo sapiens), Q5S007 [G2019S]. The data set can be described thus: Inhibition of LRRK2 […] mutant expressed in human SH-SY5Y cells assessed as unbound concentration required for inhibition of phosphorylation of LRRK2 at Ser935 residue incubated for 90 mins by MSD assay. The format is cell-based.
The target of data set [6] is Leucine-rich repeat serine/threonine-protein kinase 2 (Homo sapiens, UniProt Q5S007, G2019S). Nature of the data set: Inhibition of recombinant N-terminal GST-fused LRRK2 […] mutant (970 to 2527 residues) (unknown origin) preincubated with enzyme for 15 mins followed by fluorescein-labeled LRRKtide peptide substrate and ATP addition for 90 mins by TR-FRET assay. A general note: Time-resolved FRET reads energy transfer from a long-lived donor to a nearby acceptor.

The nature of data set [7]: Total plasma clearance in Wistar Han rat at 0.1 mg/kg, iv by LC-MS/MS analysis. The format is ADME, organism-based.
Data set [8] in a line: MRT in Wistar Han rat at 0.1 mg/kg, iv by LC-MS/MS analysis. In kind it is ADME, organism-based. As to conditions: in vivo.
Data set [9] can be described thus: Intrinsic clearance in Wistar Han rat at 0.1 mg/kg, iv by LC-MS/MS analysis. The format is ADME, organism-based. As to conditions: in vivo.
The nature of data set [10]: Lipophilicity, logD of the compound by HPLC analysis. In kind it is physicochemical.
In data set [11] the target is Voltage-gated inwardly rectifying potassium channel KCNH2 (Homo sapiens, UniProt Q12809). Nature of the data set: Inhibition of human ERG by voltage clamp assay. In kind it is toxicity.
The nature of data set [12]: Total plasma clearance in Wistar Han rat at 2 mg/kg, iv by LC-MS/MS analysis. The format is ADME, organism-based.
Data set [13] can be described thus: Intrinsic clearance in dog hepatocytes at 0.3 uM incubated for 90 mins by LC/MS/MS analysis. The format is ADME, cell-based, Canis lupus familiaris, Hepatocyte. As to conditions: read-out: CLH.
In another data set the test system is mouse Bcrp. Nature of the data set: Efflux ratio of apparent permeability across basolateral to apical over apical to basolateral side in mouse Bcrp-transfected dog MDCK-II cells at 0.1 to 1 uM measured after 3 hrs by LC/MS/MS analysis. The format is ADME, cell-based, Canis lupus familiaris. As to conditions: dose 0.1-1 µM.
Data set [14] in a line: MRT in Wistar Han rat at 2 mg/kg, iv by LC-MS/MS analysis. The format is ADME, organism-based. As to conditions: in vivo.
A short description of data set [15]: Unbound brain-to-plasma concentration ratio in rat at 2.5 uM incubated for 4 hrs by equilibrium dialysis method. In kind it is ADME, cell-free. As to conditions: brain and plasma (unbound), read-out: K(p,uu,brain). (In equilibrium dialysis only unbound substance equilibrates across the membrane.)
A short description of data set [16]: Intrinsic clearance in Wistar Han rat at 2 mg/kg, iv by LC-MS/MS analysis. In kind it is ADME, organism-based. As to conditions: in vivo.
Data set [17] in a line: Oral bioavailability in Wistar Han rat at 10 mg/kg by LC-MS/MS analysis. The format is ADME, organism-based. As to conditions: in vivo.
A short description of data set [18]: Intrinsic clearance in Beagle dog at 2 mg/kg, iv by LC-MS/MS analysis. In kind it is ADME, organism-based, Canis lupus familiaris. As to conditions: in vivo.
Data set [19] in a line: Total plasma clearance in Beagle dog at 2 mg/kg, iv by LC-MS/MS analysis. In kind it is ADME, organism-based, Canis lupus familiaris.
Data set [20] can be described thus: Oral bioavailability in Beagle dog by LC-MS/MS analysis. The format is ADME, organism-based, Canis lupus familiaris. As to conditions: in vivo.
Data set [21] in a line: MRT in Beagle dog at 2 mg/kg, iv by LC-MS/MS analysis. The format is ADME, organism-based, Canis lupus familiaris. As to conditions: in vivo.

Structures are written as SMILES. pIC50: −log10 of the molar value. Bounds are passed on as bounds.

Sequence of Leucine-rich repeat serine/threonine-protein kinase 2 (Homo sapiens), Q5S007 [G2019S] (Q5S007 whole entry G2019S, the tested form may be a part): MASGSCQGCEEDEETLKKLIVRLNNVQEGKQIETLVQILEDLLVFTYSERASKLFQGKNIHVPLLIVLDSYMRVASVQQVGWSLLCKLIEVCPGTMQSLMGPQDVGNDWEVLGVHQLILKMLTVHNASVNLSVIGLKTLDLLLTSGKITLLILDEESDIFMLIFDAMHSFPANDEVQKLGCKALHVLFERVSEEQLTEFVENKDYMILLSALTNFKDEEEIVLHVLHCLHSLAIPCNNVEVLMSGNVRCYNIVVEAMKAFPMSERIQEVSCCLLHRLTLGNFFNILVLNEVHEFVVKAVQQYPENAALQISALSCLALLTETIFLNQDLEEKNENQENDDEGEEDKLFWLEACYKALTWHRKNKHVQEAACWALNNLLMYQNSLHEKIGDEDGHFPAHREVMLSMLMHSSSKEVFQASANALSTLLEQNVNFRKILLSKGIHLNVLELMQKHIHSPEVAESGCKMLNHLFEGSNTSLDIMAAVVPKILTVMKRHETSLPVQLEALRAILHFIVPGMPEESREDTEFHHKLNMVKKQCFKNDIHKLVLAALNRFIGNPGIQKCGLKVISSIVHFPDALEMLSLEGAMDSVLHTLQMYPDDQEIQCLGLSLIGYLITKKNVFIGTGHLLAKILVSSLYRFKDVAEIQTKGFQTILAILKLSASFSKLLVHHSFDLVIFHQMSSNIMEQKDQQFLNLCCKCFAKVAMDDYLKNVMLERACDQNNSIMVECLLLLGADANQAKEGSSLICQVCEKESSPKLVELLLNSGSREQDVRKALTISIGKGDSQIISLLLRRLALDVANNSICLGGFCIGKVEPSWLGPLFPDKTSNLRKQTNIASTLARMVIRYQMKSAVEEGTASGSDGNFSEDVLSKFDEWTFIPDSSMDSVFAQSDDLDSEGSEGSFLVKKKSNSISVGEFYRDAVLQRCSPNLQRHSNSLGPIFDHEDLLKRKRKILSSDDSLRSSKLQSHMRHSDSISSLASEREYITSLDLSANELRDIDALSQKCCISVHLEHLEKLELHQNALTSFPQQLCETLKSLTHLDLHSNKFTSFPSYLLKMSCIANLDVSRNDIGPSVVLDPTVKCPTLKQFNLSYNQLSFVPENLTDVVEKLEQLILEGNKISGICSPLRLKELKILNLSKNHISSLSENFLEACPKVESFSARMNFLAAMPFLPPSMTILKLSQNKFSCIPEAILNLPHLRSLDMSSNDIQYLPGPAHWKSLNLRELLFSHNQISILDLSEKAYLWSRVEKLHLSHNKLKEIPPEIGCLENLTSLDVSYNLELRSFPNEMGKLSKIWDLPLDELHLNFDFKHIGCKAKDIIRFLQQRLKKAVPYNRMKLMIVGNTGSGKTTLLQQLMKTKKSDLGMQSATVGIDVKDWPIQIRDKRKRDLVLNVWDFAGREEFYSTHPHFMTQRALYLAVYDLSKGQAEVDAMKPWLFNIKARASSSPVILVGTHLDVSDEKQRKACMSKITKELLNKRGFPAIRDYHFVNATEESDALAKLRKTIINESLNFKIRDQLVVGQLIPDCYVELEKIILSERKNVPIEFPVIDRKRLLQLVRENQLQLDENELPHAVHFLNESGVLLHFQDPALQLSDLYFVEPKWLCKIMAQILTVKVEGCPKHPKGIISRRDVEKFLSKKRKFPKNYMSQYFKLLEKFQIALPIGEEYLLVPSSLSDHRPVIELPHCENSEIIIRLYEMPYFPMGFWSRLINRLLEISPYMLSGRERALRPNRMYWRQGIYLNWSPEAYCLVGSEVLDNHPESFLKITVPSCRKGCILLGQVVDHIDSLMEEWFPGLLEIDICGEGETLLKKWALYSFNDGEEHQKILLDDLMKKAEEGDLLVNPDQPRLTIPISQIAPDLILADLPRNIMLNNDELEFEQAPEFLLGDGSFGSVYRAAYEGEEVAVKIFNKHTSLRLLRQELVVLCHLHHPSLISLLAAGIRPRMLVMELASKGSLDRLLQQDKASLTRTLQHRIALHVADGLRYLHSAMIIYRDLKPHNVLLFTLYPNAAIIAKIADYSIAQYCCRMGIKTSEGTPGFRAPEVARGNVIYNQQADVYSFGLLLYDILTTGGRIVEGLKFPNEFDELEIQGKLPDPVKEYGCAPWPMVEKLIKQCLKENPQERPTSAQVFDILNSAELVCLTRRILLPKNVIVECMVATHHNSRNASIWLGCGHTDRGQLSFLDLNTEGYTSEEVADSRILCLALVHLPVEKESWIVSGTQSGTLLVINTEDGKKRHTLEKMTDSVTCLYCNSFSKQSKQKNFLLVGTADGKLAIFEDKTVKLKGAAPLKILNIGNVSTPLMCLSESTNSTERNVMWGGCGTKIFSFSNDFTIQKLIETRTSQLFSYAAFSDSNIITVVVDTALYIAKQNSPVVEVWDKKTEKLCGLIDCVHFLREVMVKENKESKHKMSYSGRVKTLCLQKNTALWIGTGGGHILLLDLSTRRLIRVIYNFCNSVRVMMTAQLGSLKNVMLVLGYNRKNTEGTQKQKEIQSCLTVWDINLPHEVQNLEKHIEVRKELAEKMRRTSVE
Sequence of Leucine-rich repeat serine/threonine-protein kinase 2 (Q5S007 whole entry G2019S, the tested form may be a part): as above
Sequence of Voltage-gated inwardly rectifying potassium channel KCNH2 (Q12809 whole entry): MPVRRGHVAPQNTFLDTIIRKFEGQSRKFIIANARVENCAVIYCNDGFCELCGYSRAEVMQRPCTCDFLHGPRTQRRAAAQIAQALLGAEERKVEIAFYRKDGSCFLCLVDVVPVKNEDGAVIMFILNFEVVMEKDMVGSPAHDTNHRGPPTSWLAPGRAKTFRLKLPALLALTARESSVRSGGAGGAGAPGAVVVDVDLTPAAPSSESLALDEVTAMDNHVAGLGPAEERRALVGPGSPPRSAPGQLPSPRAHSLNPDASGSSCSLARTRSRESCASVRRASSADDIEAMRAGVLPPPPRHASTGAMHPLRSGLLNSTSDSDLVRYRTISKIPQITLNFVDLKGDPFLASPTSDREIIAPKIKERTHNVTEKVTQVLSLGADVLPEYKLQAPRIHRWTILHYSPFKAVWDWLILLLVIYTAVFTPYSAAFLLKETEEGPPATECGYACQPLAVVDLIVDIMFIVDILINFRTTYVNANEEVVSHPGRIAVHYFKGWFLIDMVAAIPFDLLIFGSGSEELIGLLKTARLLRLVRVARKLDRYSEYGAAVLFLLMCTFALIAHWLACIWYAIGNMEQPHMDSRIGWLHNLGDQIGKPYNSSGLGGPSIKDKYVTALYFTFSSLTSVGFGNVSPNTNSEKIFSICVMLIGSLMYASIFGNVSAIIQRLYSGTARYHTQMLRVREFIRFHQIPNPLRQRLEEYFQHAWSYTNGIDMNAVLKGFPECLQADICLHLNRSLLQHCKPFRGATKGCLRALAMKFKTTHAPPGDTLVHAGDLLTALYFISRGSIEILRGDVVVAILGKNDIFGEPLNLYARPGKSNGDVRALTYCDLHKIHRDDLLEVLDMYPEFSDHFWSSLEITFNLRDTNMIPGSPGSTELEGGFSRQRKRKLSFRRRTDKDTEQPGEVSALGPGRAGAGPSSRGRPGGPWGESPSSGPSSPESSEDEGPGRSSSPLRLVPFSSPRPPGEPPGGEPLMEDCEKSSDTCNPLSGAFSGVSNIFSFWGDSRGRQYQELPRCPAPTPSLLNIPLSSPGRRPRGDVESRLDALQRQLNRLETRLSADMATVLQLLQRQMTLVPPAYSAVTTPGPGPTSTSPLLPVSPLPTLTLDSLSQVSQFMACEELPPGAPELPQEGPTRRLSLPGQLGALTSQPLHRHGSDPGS

One may read the efflux ratio as the permeability from basolateral to apical divided by that in the opposite direction, in the common usage. In general, Papp A→B refers to the apparent permeability from the apical to the basolateral side of a cell layer. As usually defined, the pIC50 is −log10 of the IC50, conventionally taken in molar units. As to `N#CC1(c2ccc3cnc(Nc4cnn(C5CCOCC5)c4Cl)nc3c2)CC12CC2` (centres undefined), the efflux ratio at 3 h, up to 1 µM in the data set on rat Mdr1a (P-gp) [1] was determined as 0.9. For the same compound, the CLint scaled at 0.3 µM in data set [2] worked out at 118 L/h/kg; in data set [3], 24.3 L/h/kg. Besides, the Papp A→B at 3 h, up to 1 µM in the data set with rat Mdr1a (P-gp) [4] amounted to 310 nm/s. Besides, the fIC50 in data set [5] came out at 1.7 nM. The pIC50 in [6] was more than 10.10.
As to `Cc1c(Nc2ncc3ccc(C4CCN(C5COC5)CC4)cc3n2)cnn1C1CCOCC1`, the pIC50 in [6] is 5.17.
As a reminder, the clearance is the volume of plasma or blood freed of the substance per unit of time. Read a low clearance as inefficient removal. A word on the MRT: it is the average time that molecules of a dose stay in the body. `FC(F)Cn1ncc(Nc2ncc3cc(Cl)c(C4CCN(C5COC5)CC4F)cc3n2)c1Cl` (centres undefined): the efflux ratio at 3 h, up to 1 µM in the data set on rat Mdr1a (P-gp) [1] stood at 1. Also, the clearance in data set [7] is 1.08 L/h/kg. Also, the results for the CLint scaled at 0.3 µM in data set [2] and in data set [3] were 20.2 L/h/kg and 12.7 L/h/kg, respectively. Further, in data set [8], the MRT turned out to be 1.8 h. In addition, the Papp A→B at 3 h, up to 1 µM in the data set on rat Mdr1a (P-gp) [4] worked out at 330 nm/s. Further, the CL in [9] amounted to 45.3 L/h/kg. Further, the fIC50 in data set [5] worked out at 7.4 nM. Besides, the pIC50 in data set [6] was more than 9.22.
As usually defined, the logD is lipophilicity at a set pH, counting ionised and neutral species. The low end stands for lower lipophilicity, the high end for higher lipophilicity. Turning to `Cc1c(Nc2ncc3cccc(C4CC4)c3n2)cnn1C1CCOCC1`, in the data set on rat Mdr1a (P-gp) [1], the efflux ratio at 3 h, up to 1 µM came out at 0.65. The compound further yielded a clearance in data set [7] of 2.04 L/h/kg. Further, the logD in data set [10] came out at 2.7. Besides, the results for the CLint scaled at 0.3 µM in data set [2] and in data set [3] were 53.9 L/h/kg and 9.72 L/h/kg, respectively. This compound also gave an MRT in data set [8] of 0.6 h. Further, the Papp A→B at 3 h, up to 1 µM in the data set on rat Mdr1a (P-gp) [4] came to 360 nm/s. Moreover, the CL in [9] came out at 73.14 L/h/kg. The fIC50 in data set [5] came out at 31 nM. In addition, in data set [6], the pIC50 was 9.00.
`Clc1cc2cnc(Nc3cnn(C4CC4)c3Cl)nc2cc1N1CCN(C2COC2)CC1`: in the data set with rat Mdr1a (P-gp) [1], the efflux ratio at 3 h, up to 1 µM was determined as 0.9. The compound also yielded a clearance in data set [7] of 2.52 L/h/kg. Also, the figures for the CLint scaled at 0.3 µM in data set [2] and in data set [3] were 10.1 L/h/kg and 3.78 L/h/kg, respectively. In addition, in data set [8], the MRT stood at 1.1 h. In addition, the apical-to-basolateral permeability (Papp A→B) at 3 h, up to 1 µM with rat Mdr1a (P-gp) [4] was determined as 330 nm/s. In addition, the CL in data set [9] came to 108 L/h/kg. The fIC50 in [5] amounted to 71 nM. The pIC50 in [11] was 4.62.
As for `c1cc(C2CC2)c2nc(Nc3cnn(C4CCOCC4)c3)ncc2c1`, the fIC50 in [5] came out at 90 nM. The pIC50 in data set [6] was 7.82.
As a reminder, the bioavailability is dose-corrected exposure relative to a reference, in per cent. Take `FC1CN(C2COC2)CCC1c1cc2nc(Nc3cnn(C4CC4)c3Cl)ncc2cc1Cl` (centres undefined): the efflux ratio at 3 h, up to 1 µM in the data set on rat Mdr1a (P-gp) [1] and with mouse Bcrp was 1.3 each time. Also, the clearance in data set [12] was 1.08 L/h/kg. Further, the CLint scaled at 0.3 µM in data set [2] was determined as 19.7 L/h/kg; in data set [3] it was 10.5 L/h/kg; in data set [13] it was 77.9 L/h/kg. Besides, in the data set with rat Mdr1a (P-gp) [4], the Papp A→B at 3 h, up to 1 µM was determined as 320 nm/s. This compound had an MRT in [14] of 3.8 h. The Kp uu at 4 h, 2.5 µM in [15] was determined as 0.5. In addition, the fIC50 in data set [5] was 4.3 nM. The pIC50 was 4.85 in [11] and more than 9.22 in data set [6]. This compound yielded a CL in [16] of 72 L/h/kg. This compound also had a bioavailability in [17] of 54%.
With `Clc1cc2cnc(Nc3cnn(C4CC4)c3Cl)nc2cc1C1CCN(C2COC2)CC1`, the efflux ratio at 3 h, up to 1 µM in the data set on rat Mdr1a (P-gp) [1] is 0.5; in the data set on mouse Bcrp, 0.6. In data set [7], this compound showed a clearance of 1.14 L/h/kg. The CLint scaled at 0.3 µM was found to be 27.8 L/h/kg in data set [2] and 3.42 L/h/kg in [3]. Further, the MRT in data set [8] came out at 1.5 h. Besides, the Papp A→B at 3 h, up to 1 µM with rat Mdr1a (P-gp) [4] amounted to 260 nm/s. In data set [9], this compound came in with a CL of 61.5 L/h/kg. Also, the fIC50 in data set [5] turned out to be 4.8 nM. Besides, the values for the pIC50 in [11] and in data set [6] were 5.34 and more than 9.22, respectively.
Turning to `Cc1c(Nc2ncc3ccc(C4(C#N)CC45CC5)cc3n2)cnn1C1CCOCC1` (centres undefined), the efflux ratio at 3 h, up to 1 µM in the data set with rat Mdr1a (P-gp) [1] was 7.2. The Papp A→B at 3 h, up to 1 µM with rat Mdr1a (P-gp) [4] came out at 340 nm/s. For the same compound, the fIC50 in data set [5] was 6.9 nM. Further, in data set [6], the pIC50 was more than 9.22.
Take `Cc1c(Nc2ncc3cc(Cl)c(C4CCN(C5COC5)CC4)cc3n2)cnn1C1CC1`: the efflux ratio at 3 h, up to 1 µM was determined as 3 in the data set with rat Mdr1a (P-gp) [1] and 4.2 with mouse Bcrp. Also, the clearance in data set [12] amounted to 0.84 L/h/kg; in data set [19], 1.38 L/h/kg. For the same compound, the CL turned out to be 28.6 L/h/kg in [18] and 15.6 L/h/kg in data set [16]. Also, the CLint scaled at 0.3 µM in [2] amounted to 27.4 L/h/kg; in data set [3], 2.94 L/h/kg; in data set [13], 17.6 L/h/kg. For the same compound, the results for the bioavailability in data set [20] and in [17] were 38% and 26%, respectively. For the same compound, the Papp A→B at 3 h, up to 1 µM in the data set with rat Mdr1a (P-gp) [4] turned out to be 350 nm/s. Moreover, the results for the MRT in data set [14] and in data set [21] were 2.1 h and 2 h, respectively. Besides, the Kp uu at 4 h, 2.5 µM in [15] was determined as 0.2. Also, the fIC50 in data set [5] came to 9.9 nM. In addition, the values for the pIC50 in data set [11] and in data set [6] were 4.82 and 9.19, respectively.

(Values after ChEMBL document CHEMBL5042510, “Structure-Guided Discovery of Aminoquinazolines as Brain-Penetrant and Selective LRRK2 Inhibitors” (J Med Chem, 2022).)
